Measurements: publication PMC3847553, “Kinetic properties of “dual” orexin receptor antagonists at OX1R and OX2R orexin receptors” (Frontiers in Neuroscience, 2013)
Like-named read-outs stand apart in the source and are kept apart here.

Columns and labels:
[1] = molecular target: T1, rat OX1R (Rattus norvegicus, UniProt P56718); assay: FLIPR orexin A-stimulated calcium accumulation, rat OX1R; type: cell-based; settings: HEK cells
T1 construct: expressed in transfected cells; host or cells: HEK; cells from GNF, San Diego
T1 sequence (P56718 1-416): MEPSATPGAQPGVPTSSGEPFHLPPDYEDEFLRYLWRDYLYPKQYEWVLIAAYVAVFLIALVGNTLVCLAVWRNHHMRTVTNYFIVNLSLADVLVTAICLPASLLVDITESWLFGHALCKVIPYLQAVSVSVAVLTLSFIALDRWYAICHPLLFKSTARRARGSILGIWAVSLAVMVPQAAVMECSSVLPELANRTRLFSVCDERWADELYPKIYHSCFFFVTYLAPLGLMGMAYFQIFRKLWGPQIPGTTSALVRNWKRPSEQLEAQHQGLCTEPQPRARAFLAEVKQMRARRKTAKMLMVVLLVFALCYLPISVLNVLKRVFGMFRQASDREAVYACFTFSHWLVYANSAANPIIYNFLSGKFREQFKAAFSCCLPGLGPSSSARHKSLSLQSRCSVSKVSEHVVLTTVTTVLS
Method: Chinese Hamster Ovary (CHO) cells stably transfected with the cDNA encoding the human OX1R (CHO-hOX1) or OX2R (CHO-hOX2) were used (kindly provided by T. Cremer and Dr. S. Geisse, NIBR Basel, Switzerland). For measurements of calcium accumulation using FLIPR® (Fluorescent Imaging Plate Reader) assay, CHO or Human Embryonic Kidney (HEK) cells stably expressing mouse, rat or human OX1R or OX2R (kindly provided by Dr. A. Chen, GNF, San Diego, CA, USA) were used. All cells were cultured in 1:1 Dulbecco's Modified Eagle's Medium (DMEM)/Ham's F12 Nutrients Mixture (F12) supplemented with 10% (v/v) fetal bovine serum (FBS), […] (100 μg/ml), Fungizone (250 μg/ml), and Geneticin (G418, […]). Cells were maintained in a humidified incubator at 37°C in 5% CO2. For crude cell membrane preparations, cells were washed and harvested in 10 mM HEPES (pH 7.5), and centrifuged at 4°C for 5 min at 2500 g. The cell pellet was either stored at −80°C or used directly.
Cells expressing either human, rat or mouse OX1R or OX2R were seeded at 8,000 cells/well in black 384 well clear bottom plates and incubated overnight at 37°C. The following day, medium was discarded and cells loaded with 50 μ l of 1 mM Fluo-4 AM (Invitrogen F14202) in dimethyl sulfoxide in working buffer (Hanks' balanced salt solution, 10 mM HEPES) and incubated for 60 min at 37°C. The loading buffer was removed and cells were washed with 100 μ l working buffer containing […], 0.1% BSA, and 2.5 mM Probenecid (pH 7.4) to remove the excess Fluo-4 AM. […] The assay plate was then transferred to the Molecular Devices-FLIPR384. The baseline calcium signal was recorded for 10 s, then the antagonist of interest was injected (10 μl at 3 times the final concentration) and the calcium signal recorded every second for 1 min, then every 2 s 40 times. Plates were then incubated at room temperature for 30 min, 1, 2, or 4 h.

[2] = system: sleep wake cycle; design: method as in Mang et al., 2012; settings: ref Mang et al., 2012, cited from earlier work
[3] = system: OX1R; assay: FLIPR calcium assay, OX1R, species not given; type: cell-based; settings: species not stated
Method: (§1) Determination of orexin A-stimulated calcium accumulation was performed over 2 days using FLIPR® (Fluorescent imaging plate reader from Molecular Devices-FLIPR384). Cells expressing either human, rat or mouse OX1R or OX2R were seeded at 8,000 cells/well in black 384 well clear bottom plates and incubated overnight at 37°C. The following day, medium was discarded and cells loaded with 50 μ l of 1 mM Fluo-4 AM (Invitrogen F14202) in dimethyl sulfoxide in working buffer (Hanks' balanced salt solution, 10 mM HEPES) and incubated for 60 min at 37°C. The loading buffer was removed and cells were washed with 100 μ l working buffer containing […], 0.1% BSA, and 2.5 mM Probenecid (pH 7.4) to remove the excess Fluo-4 AM. Working buffer was added and plates were incubated 10–15 min at room temperature. The assay plate was then transferred to the Molecular Devices-FLIPR384. The baseline calcium signal was recorded for 10 s, then the antagonist of interest was injected (10 μl at 3 times the final concentration) and the calcium signal recorded every second for 1 min, then every 2 s 40 times. Plates were then incubated at room temperature for 30 min, 1, 2, or 4 h.

[4] = system: OX2R; assay: FLIPR calcium assay, OX2R, species not given; type: cell-based; settings: species not stated
Method: as §1

[5] = system: REM sleep; design: method as in Bettica et al., 2012b, 2012c; settings: 10, 30, or 60 mg; healthy volunteers and insomnia patients; ref Bettica et al., 2012b, 2012c; cited from earlier work

Structure (SMILES)	Ki ([1]; antagonist incubation 30 min)	Ki ([1]; antagonist incubation 1 h)	Ki ([1]; antagonist incubation 2 h)	Ki ([1]; antagonist incubation 4 h)	effect on sleep ([2]; OX1R KO mice)	effect on the sleep wake cycle ([2]; OX2R KO mice)	effect on the sleep wake cycle ([2]; double receptor KO mice)	effect of incubation time on potency in calcium assay [3]	effect of incubation time on potency in calcium assay [4]	REM duration [5]	latency to REM [5]
CNC(=O)[C@@H](c1ccccc1)N1CCc2cc(OC)c(OC)cc2[C@@H]1CCc1ccc(C(F)(F)F)cc1 [Almorexant]	12.6 nM	12.6 nM	11.2 nM	17.4 nM	effective	no effect on the sleep wake cycle	no effect on the sleep wake cycle				
Cc1ccc(-c2ncccn2)c(C(=O)N2C[C@H](COc3ccc(F)cn3)CC[C@H]2C)c1 [Filorexant]	0.759 nM	0.617 nM	0.501 nM	1.2 nM							
COc1ccnc(N2CCC3(CCCN(Cc4c[nH]c5ccccc45)C3=O)CC2)n1 [IPSU, 2-((1H-Indol-3-yl)methyl)-9-(4-methoxypyrimidin-2-yl)-2,9-diazaspiro[5.5]undecan-1-one]	224 nM	240 nM	275 nM	562 nM				constant potency values irrespective of the incubation time	constant potency values irrespective of the incubation time		
Cc1nc(C(=O)N2CCCC[C@H]2CNC(=O)c2cccc3occc23)c(-c2ccc(F)cc2)s1 [SB-649868]	0.257 nM	0.126 nM	0.0676 nM	0.0724 nM						increases REM duration	decreases latency to REM
